Measured values reported in patent US20060234990A1, “Compositions of boswellic acids derived from Boswellia serrata gum resin, for treating lymphoproliferative and autoimmune conditions” (SAMI LABS LTD., priority 2000, published 2006).

Columns and labels:
HL-60 cells [1] = assay: DNA synthesis ([3H]thymidine incorporation) in HL-60 cells; format: cell-based; details: Homo sapiens; cultured HL-60 cells incubated for 2 hours; read-out: 50% inhibitory activity on the incorporation of [3H]-thymidine into DNA
Excerpt: (§1) FIGS. 1, 2, and 3 show the inhibitory effects of compounds I-IV on the DNA, RNA and protein synthesis of HL-60 cells, respectively (in FIG. 1-3, lines 1, 2, 3 and 4 refer to the data of compounds I, II, III and IV, respectively). Tables 1 and 2 show the inhibitory effect of a “total organic acids” extract of the exudate of Boswellia serrata on DNA, RNA and protein synthesis or growth in HL-60 cells. […] The initial rates of incorporation of [^3H]-thymidine, [^3H]-uridine and [^3H]-leucine into trichloroacetic acid (TCA)-insoluble material were utilized to estimate the rates of DNA, RNA, and protein synthesis, respectively, in HL-60 cells. […] the inhibitory effects of compounds I-IV and the alcoholic extract on DNA. RNA and protein synthesis of HL-60 cells were in a dose-dependent manner. […] 0.9 and 0.6 μM, respectively, the incorporation of [3H]-uridine at concentrations of 7.1, 2.3. 2.2 and 0.5 μM, respectively, and the incorporation of [3H]-leucine into protein at concentrations of 6.3, 5.4, 5.1 and 4.1 μM, respectively, in cultured HL-60 cells incubated for 2 hours.
(§2) Various concentrations of the Boswellia serrata extract, as indicated above, were added to 1 mL of HL-60 cells suspended in RPMI medium. [^3H]thymidine (50 μCi/μmol: […]), [^3H]uridine (55 μCi/μmol; 5 μL), [^3H]leucine (200 μCi/μmol: 10 μL), were added to the cell suspension and incubated at 37° C. for 120 min. Reactions were terminated by addition of 3 mL of cold PBS, and the rates of DNA. RNA, and protein synthesis were determined.
[^3H]Thymidine (3 μL; 50 μCi/μmol), vehicle or various concentrations of BSE in vehicle were added to 1 mL of HL-60 cells (5×10^5 cells/mL) in culture, and the cultures were incubated at 37° C. for 120 min. Data are expressed as the mean±SE calculated from triplicate studies. Data in parentheses are the percent inhibition of [^3H]thymidine incorporation into the DNA of HL-60 cells.

HL-60 cells [2] = assay: RNA synthesis ([3H]uridine incorporation) in HL-60 cells; format: cell-based; details: Homo sapiens; cultured HL-60 cells incubated for 2 hours; read-out: 50% inhibitory activity on the incorporation of [3H]-uridine
Excerpt: as §1, §2

HL-60 cells [3] = assay: Protein synthesis ([3H]leucine incorporation) in HL-60 cells; format: cell-based; details: Homo sapiens; cultured HL-60 cells incubated for 2 hours; read-out: 50% inhibitory activity on the incorporation of [3H]-leucine into protein
Excerpt: as §1, §2

HL-60 cells [4] = assay: Cellular growth of HL-60 cells in culture; format: cell-based; details: Homo sapiens, HL-60, 96 h, 37° C., 4 days
Procedure: (§3) The effect of compound IV on cellular growth of HL-60 cells was tested. […] In order to test whether this growth was the result of cell cytotoxicity, the effects of this compound on cell viability were examined after 4 days incubation using the trypan blue exclusion method. The cells viability at concentrations of 0, 1, 4, 16 μM were 97.0, 96.8, 96.5, or 96.7%, respectively.
Various concentrations of BSE, as indicated above, were added to the HL-60 cell cultures. These cultures were counted daily using a hemacytometer under a microscope with 10× magnification every 24 hours. Data are expressed as the mean=SE calculated from triplicate studies. Data in parentheses are the percent inhibition of cell growth.

[5] = Cell viability of HL-60 cells, trypan blue exclusion method; format: cell-based; details: human, 4 days incubation
Procedure: as §3

HL-60 cells [6] = assay: Reversibility of DNA synthesis inhibition after preincubation and washing; format: cell-based, human; details: preincubated at 2 and 8 μM for 30 min at 37° C., washed with PBS
Procedure: In this experiment HL-60 cells were preincubated with compound IV at 2 and 8 μM for 30 min at 37° C., washed with phosphate buffer saline and [3H]-thymidine was added to the culture. At desired times, the reactions were terminated and the rates of DNA synthesis were determined.

human leukocyte elastase = target: T1, human leukocyte elastase (Homo sapiens, UniProt P08246); details: in vitro; Safayhi et al (1997); cited from earlier work
T1 sequence (P08246 30-267): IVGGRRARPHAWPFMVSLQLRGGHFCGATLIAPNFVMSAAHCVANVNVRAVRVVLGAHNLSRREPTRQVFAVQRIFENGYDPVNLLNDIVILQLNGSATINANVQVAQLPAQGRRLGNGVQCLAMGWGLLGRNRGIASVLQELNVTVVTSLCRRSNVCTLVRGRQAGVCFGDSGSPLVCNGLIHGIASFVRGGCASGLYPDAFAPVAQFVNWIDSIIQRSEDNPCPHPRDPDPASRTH

IC50 (HL-60 cells [1]) [µM] | IC50 (HL-60 cells [2]) [µM] | IC50 (HL-60 cells [3]) [µM] | Compound | inhibition at 1 µM (HL-60 cells [4]; 1 μM) [%] | inhibition at 4 µM (HL-60 cells [4]; 4 μM) [%] | inhibition at 16 µM (HL-60 cells [4]; 16 μM) [%] | viability at 4 days, 1 µM ([5]; 1 μM) [%] | viability at 4 days, 4 µM ([5]; 4 μM) [%] | viability at 4 days, 16 µM ([5]; 16 μM) [%] | inhibitory action on DNA synthesis after washing (HL-60 cells [6]) | IC50 (human leukocyte elastase) [µM]
3.7 | 7.1 | 6.3 | CC1CCC2(C)CCC3(C)C(=CCC4(C)C3CCC3C(C)(C(=O)O)C(O)CCC34C)C2C1C (stereo not drawn) [I, β-Boswellic Acid] | – | – | – | – | – | – | – | –
1.4 | 2.3 | 5.4 | CC(=O)OC1CCC2(C)C(CCC3C4(C)CCC5(C)CCC(C)C(C)C5C4=CCC32C)C1(C)C(=O)O (stereo not drawn) [II, Acetyl-β-Boswellic Acid] | – | – | – | – | – | – | – | –
0.9 | 2.2 | 5.1 | CC1CCC2(C)CCC3(C)C(=CC(=O)C4(C)C3CCC3C(C)(C(=O)O)C(O)CCC34C)C2C1C (stereo not drawn) [III, 11-keto-β-Boswellic Acid] | – | – | – | – | – | – | – | –
0.6 | 0.5 | 4.1 | CC(=O)OC1CCC2(C)C(CCC3C4(C)CCC5(C)CCC(C)C(C)C5C4=CC(=O)C32C)C1(C)C(=O)O (stereo not drawn) [IV, Acetyl-11-keto-β-Boswellic Acid] | 54.5 | 71.8 | 98.6 | 96.8 | 96.5 | 96.7 | irreversible | ~15
